The values below come from patent US9314510B2, “Human laminin α2 chain LG3 domain and active peptides promoting cell adhesion, spreading, migration, and neurite outgrowth” (SNU R&DB Foundation, priority 2011, dated 2016).

Assay [1] relates to Schwann cells. Briefly: Schwann cell spreading on coated plates. The class given is cell-based, human. As to conditions: plates coated with 62.5 μg/mL peptide, 3 h. The protocol: Schwann cells, nerve cells used in the present invention, were obtained from human skin-derived precursors by differentiating the cells toward the Schwann cell lineage for two weeks and identified by immunocytochemical markers specific to Schwann cells, such as S100D and glial fibrillary acidic protein (GFAP) (Biernaskie, J. A. et al., Nat. Protoc., 2006).
Schwann cells were cultured on plates which were coated in the same way for 3 h in serum-free medium and the cell spreading of Schwann cells was observed.

For assay [2], the system named is PC12 cells. The assay can be described thus: Cell adhesion inhibition assay: peptide pretreatment, adhesion to rLG3-coated plates. The class given is cell-based, rat. As to conditions: rLG3 25 μg/mL, 1 h. The protocol:
Specifically, PC12 cells were pretreated with the Ln2-LG3-P2 peptide in concentrations of 0, 0.2, 0.4, 0.6, 0.8, 1.0, or 1.2 μg/mL for 10 min at room temperature and then cultured on plates coated with rLG3 (25 μg/mL) for 1 h in serum-free medium.
PC12 cells were pretreated with 500 μg/mL of Ln2-LG3-P1, Ln2-LG3-P2, Ln2-LG3-P3, Ln2-LG3-P4, Ln2-LG3-P5 and SP (scramble peptide) (SEQ ID NO:20) for 10 min at room temperature and then cultured on plates coated with rLG3 (25 μg/mL) in serum-free medium. To observe cell adhesion, PC12 cells were incubated on the coated plates for 1 h and to observe cell spreading, PC12 cells were incubated on the coated plates for 3 h. To observe cell migration, cells were seed into the upper chamber of transwell filters coated with rLG3 (25 μg/mL) and cultured for 24 h. Cell migration was quantified by counting the number of cells that had migrated through the filter.
Specifically, PC12 cells were pretreated with Ln2-LG2-P2 (500 μg/mL) and Ln2-LG3-P2A (500 μg/mL) and then, cell adhesion was observed on plates coated with rLG3 (25 μg/mL).

Assay [3] deals with PC12 cells. Briefly: Neurite outgrowth assay. The class given is cell-based, rat. As to conditions: PC12 cells on coated plates, serum-free, 24 h + 72 h. The protocol:
Laminin, rLG domain protein, and the peptide were coated onto plates and cells were seeded on the plates in serum-free medium and incubated for 24 h. After changing with serum-free medium again, cells were further cultured for 72 h and neurite outgrowth was examined.

Ends that are not written are not given here.

With “RNIPPFEGCIWN (RNIPPFEGCIWN-NH2; listed as Homo sapiens) [Ln2-LG3-P2, 12-mer peptide, position 2675 to 2686 in human laminin α2 chain]”, the Schwann cell spreading result in assay [1] was “substantially higher spreading than BSA or scrambled peptide”. Also, the “reduction of Schwann cell spreading compared to laminin” value in assay [1] (laminin 5 μg/mL) is “approximately 50%”. Besides, the “cell adhesion to rLG3 after peptide pretreatment” value in assay [2] (PC12 cells pretreated with 0 to 1.2 μg/mL peptide for 10 min) was “decreased in a dose-dependent manner”. For the same molecule, the “inhibition of cell adhesion to rLG3 protein” value in assay [2] (PC12 cells pretreated with 500 μg/mL peptide) is listed as “approximately 40%”.

B1: rLG3: recombinant His6-tagged human laminin α2 chain LG3 domain, amino acids 2537 to 2745 (protein, listed as Homo sapiens)
chain: VELSPVPIDVGTEINLSFSTKNESGIILLGSGGTPAPPRRKRRQTGQAYYVILLNRGRLEVHLSTGARTMRKIVIRPEPNLFHDGREHSVHVERTRGIFTVQVDENRRYMQNLTVEQPIEVKKLFVGGAPPEFQPSPLRNIPPFEGCIWNLVINSVPMDFARPVSFKNADIGRCAHQKLREDEDGAAPAEIVIQPEPVPTPAFPTPTPV
modifications: His6 tag
For B1, the neurite outgrowth entry in assay [3] is “supports cell adhesion, spreading, migration, and neurite outgrowth”.
